Measured values taken from ChEMBL document CHEMBL1821627, “Medicinal chemistry as a conduit for the modulation of quorum sensing” (J Med Chem, 2010).
Blank lines part the entries; values can stand above or below the molecule they belong to. Where a SMILES comes first, the peptide text is derived from it. Bridges are numbered along the chain shown (N, C = ends).

How the values were obtained:
[1] = Inhibition of Staphylococcus aureus Quorum sensing system AgrC-II activation after 60 to 90 minutes by beta-lactamase reporter assay; conditions: read-out: IC50
[2] = Inhibition of Staphylococcus aureus Quorum sensing system AgrC-III activation after 60 to 90 minutes by […]
[3] = Inhibition of Staphylococcus aureus Quorum sensing system AgrC-I activation after 60 to 90 minutes by beta-lactamase reporter assay; conditions: read-out: IC50
[4] = Inhibition of Staphylococcus aureus Quorum sensing system AgrC-IV activation after 60 to 90 minutes by beta-lactamase reporter assay
[5] = target: T1, Transcriptional activator protein LasR (Pseudomonas aeruginosa (strain ATCC 15692 / PAO1 / 1C / PRS 101 / LMG12228), UniProt P25084); assay: Agonist activity at Pseudomonas aeruginosa LasR receptor expressed in Escherichia coli in absence of natural autoinducer; format: functional
T1 sequence (P25084 whole entry): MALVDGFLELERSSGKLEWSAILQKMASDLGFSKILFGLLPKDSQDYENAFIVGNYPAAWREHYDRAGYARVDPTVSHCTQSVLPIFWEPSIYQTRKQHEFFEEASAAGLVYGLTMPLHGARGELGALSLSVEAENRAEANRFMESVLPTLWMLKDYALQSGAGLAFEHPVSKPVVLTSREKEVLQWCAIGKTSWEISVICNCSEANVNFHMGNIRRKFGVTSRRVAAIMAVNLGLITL

[6] = target: T2, Transcriptional activator protein LuxR (Aliivibrio fischeri, UniProt P12746); assay: Agonist activity at Vibrio fischeri luxR receptor in absence of natural autoinducer; format: functional
T2 sequence (P12746 whole entry): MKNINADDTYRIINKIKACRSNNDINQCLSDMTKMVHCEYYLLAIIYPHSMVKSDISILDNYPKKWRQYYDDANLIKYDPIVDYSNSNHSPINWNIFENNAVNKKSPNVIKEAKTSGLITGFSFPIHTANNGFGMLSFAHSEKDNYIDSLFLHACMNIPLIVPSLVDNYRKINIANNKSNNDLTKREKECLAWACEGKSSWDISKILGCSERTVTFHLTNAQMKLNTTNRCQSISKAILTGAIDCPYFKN

[7] = target: T1, Transcriptional activator protein LasR; assay: Antagonist activity at Pseudomonas aeruginosa LasR receptor expressed in Escherichia coli in presence of 7.5 nM natural auto-inducer 3-oxo-C12-HSL; format: functional
[8] = Inhibition of autoinducer-stimulated quorum sensing regulated bioluminescence in Vibrio fischeri by luminescence assay; design: species or system Aliivibrio fischeri
[9] = target: T3, Transcriptional activator protein TraR (Agrobacterium tumefaciens, UniProt P33905); assay: Antagonist activity at Agrobacterium tumefaciens TraR receptor in presence of 100 nM 3-oxo-C8-HSL; format: functional
T3 sequence (P33905 whole entry): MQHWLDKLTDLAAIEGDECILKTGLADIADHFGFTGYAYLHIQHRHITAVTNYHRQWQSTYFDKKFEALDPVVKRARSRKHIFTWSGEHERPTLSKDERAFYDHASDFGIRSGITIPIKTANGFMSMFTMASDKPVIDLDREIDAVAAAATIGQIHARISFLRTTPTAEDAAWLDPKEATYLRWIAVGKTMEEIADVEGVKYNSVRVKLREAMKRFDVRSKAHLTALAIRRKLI

[10] = target: T2, Transcriptional activator protein LuxR; assay: Antagonist activity at Vibrio fischeri luxR receptor in presence of 5 uM 3-oxo-C6-HSL; format: functional
[11] = target: T1, Transcriptional activator protein LasR; assay: Agonist activity at Pseudomonas aeruginosa LasR cognate receptor expressed in Escherichia coli harboring pKDT17 assessed as activation of lasB expression by LacZ reporter gene assay; format: functional
PC-3 = assay: Growth inhibition of human PC3 cells; format: functional, cell-based

SMILES: CC(=O)N[C@H]1CSC(=O)[C@H](Cc2ccccc2)NC(=O)[C@H](CC(C)C)NC(=O)[C@H](CO)NC(=O)[C@H](CO)NC1=O (Ac-CSSLF; thioester 1-C)
IC50 [1]: 209 nM
IC50 [2]: 10 nM
IC50 [3]: 272 nM
IC50 [4]: 188 nM

SMILES: CCCCCCCCCC(=O)N[C@H]1CCOC1=O
IC50 [7]: 250 nM
IC50 [8]: 39.2 nM
IC50 [9]: 1050 nM
IC50 [10]: 400 nM

SMILES: CCCCCCC(=O)N[C@H]1CCOC1=O
IC50 [9]: 690 nM
IC50 [10]: 1360 nM

SMILES: CCCCCCCCCCCC(=O)CC(=O)N[C@H]1CCOC1=O
EC50 [11]: 15 nM
EC50 [5]: 10 nM

More lines, now with the values ahead:

EC50 [5]: 540 nM
SMILES: O=C(CC(=O)N[C@H]1CCOC1=O)Cc1ccccc1

EC50 [6]: 350 nM
SMILES: O=C(Cc1cccc([N+](=O)[O-])c1)N[C@H]1CCOC1=O

IC50 (PC-3): > 100000 nM
SMILES: O=C(CCCCCCCCCCCc1ccccc1)N[C@H]1CCOC1=O
